Consider eight compounds from patent publication US20220226280A1, “COMPOSITIONS AND METHODS FOR INCREASED GLUCOSE UPTAKE AND FAT METABOLISM” (Board of Supervisors of Louisiana State University and …, priority 2017, published 2022).

Like-named read-outs stand apart in the source and are kept apart here.

Data set [1] deals with UCP1 mRNA. Kind of data set: UCP1 mRNA induction in differentiated human adipocytes (Taqman RT-PCR). In kind it is cell-based. Particulars: for UCP1 expression in comparison with flavonoid alone: flavonoid 5 μM combined with 20 μM menthol, 7 day treatment. As for the experimental part: (§1) Gene expression was analyzed using Taqman RT-PCR and values are expressed as fold increase over untreated controls (n=5).
Gene expression was analyzed using Taqman RT-PCR and values are expressed as fold increase over untreated controls.
To determine the lowest concentrations with efficacy to induce UCP1 mRNA in human adipocytes over a 7 day time period, cells were treated with multiple concentrations of menthol combined with naringenin at 5 μM (FIG. 6).
(In general: In qPCR the cycle at which signal appears reflects the starting amount.)

The test system of data set [2] is GLUT4 mRNA. Kind of data set: GLUT4 mRNA induction in differentiated human adipocytes (Taqman RT-PCR). In kind it is cell-based. Particulars: human subcutaneous adipocyte cultures. Here is the method: as §1
Gene expression was analyzed using Taqman RT-PCR and values are expressed as fold increase over untreated controls. Naringenin and Menthol v. Control: p=0.008, Naringenin and Menthol v. Naringenin: p=0.01. Naringenin and Menthol v. Menthol: p<0.001, Naringenin v. Control: p>0.05, Menthol v. Control: p>0.05.
(§2) UCP1 mRNA levels increased 4-8 fold in human subcutaneous adipocytes treated from 4-7 days with Naringenin at a concentration of 10 μM, the Cmax detected in human plasma after intake of citrus beverages (FIG. 1) (Kanaze, F. I., et al., Eur J Clin Nutr, 2007 61(4):472-7).

In data set [3] the test system is carnitine palmitoyltransferase 1 (CPT-1). Kind of data set: CPT-1 induction in human subcutaneous adipocyte cultures. In kind it is cell-based. As for the experimental part:
as §1, §2

Data set [4] deals with Pgc-1α. In words: Pgc-1α expression in human subcutaneous adipocytes. The data set is classed as cell-based. Particulars: Naringenin 10 μM. As for the experimental part:
as §1, §2

Data set [5] concerns TRPM8 receptor. In words: TRPM8 receptor expression in human adipocytes. In kind it is cell-based. Particulars: 10 μM Naringenin alone.
Data set [6] deals with HEK293 cells. The following applies: cited from earlier work.
The conditions of data set [7]: cited from earlier work.
For data set [8] the following is noted: cited from earlier work. This is another data set of the same source.
Data set [9] concerns the target TRPM8 (Homo sapiens, UniProt Q7Z2W7). Particulars: cited from earlier work.
Data set [10] has as its system UCP1 expression. The following applies: cited from earlier work.
In data set [11] the test system is Ucp1 expression. The following applies: brown adipocytes from mice; cited from earlier work.

TRPM8, sequence (Q7Z2W7 whole entry, species assumed): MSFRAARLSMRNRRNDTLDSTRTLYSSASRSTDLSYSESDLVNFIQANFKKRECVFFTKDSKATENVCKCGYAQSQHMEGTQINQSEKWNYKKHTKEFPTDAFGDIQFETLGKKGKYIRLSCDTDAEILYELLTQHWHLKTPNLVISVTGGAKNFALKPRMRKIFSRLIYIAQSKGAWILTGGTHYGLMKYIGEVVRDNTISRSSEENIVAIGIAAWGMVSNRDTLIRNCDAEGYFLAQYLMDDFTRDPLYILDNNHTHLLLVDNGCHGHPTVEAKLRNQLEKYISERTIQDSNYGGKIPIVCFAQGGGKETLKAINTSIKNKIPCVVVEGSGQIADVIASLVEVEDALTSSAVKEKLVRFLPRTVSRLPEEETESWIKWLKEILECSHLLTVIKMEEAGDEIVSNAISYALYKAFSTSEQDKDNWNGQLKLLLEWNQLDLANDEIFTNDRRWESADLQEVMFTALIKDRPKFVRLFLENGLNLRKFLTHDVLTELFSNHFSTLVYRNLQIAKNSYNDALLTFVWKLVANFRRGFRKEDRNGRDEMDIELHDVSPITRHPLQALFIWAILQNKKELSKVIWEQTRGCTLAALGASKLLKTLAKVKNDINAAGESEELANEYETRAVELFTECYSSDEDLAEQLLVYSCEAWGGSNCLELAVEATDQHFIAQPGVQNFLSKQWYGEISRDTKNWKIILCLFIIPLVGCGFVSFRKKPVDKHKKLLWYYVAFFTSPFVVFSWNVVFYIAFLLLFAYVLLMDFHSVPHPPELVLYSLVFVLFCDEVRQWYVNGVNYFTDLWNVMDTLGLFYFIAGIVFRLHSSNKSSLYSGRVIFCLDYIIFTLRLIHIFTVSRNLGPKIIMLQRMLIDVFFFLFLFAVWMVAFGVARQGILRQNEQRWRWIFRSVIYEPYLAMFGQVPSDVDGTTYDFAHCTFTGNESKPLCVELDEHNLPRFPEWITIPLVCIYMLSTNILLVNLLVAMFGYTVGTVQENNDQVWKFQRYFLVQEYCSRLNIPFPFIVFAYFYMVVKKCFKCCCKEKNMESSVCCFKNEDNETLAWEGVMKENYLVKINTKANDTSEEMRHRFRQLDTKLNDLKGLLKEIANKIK

A word on the Cmax: it is the highest concentration seen after dosing. Regarding `O=C1C[C@@H](c2ccc(O)cc2)Oc2cc(O)cc(O)c21` (stereo in doubt) [Naringenin, 2,3-dihydro-5,7-dihydroxy-2-(4-hydroxyphenyl)-4H-1-benzopyran-4-one], the “UCP1 mRNA levels increased” value in data set [1] (Naringenin 10 μM, 4-7 days, human subcutaneous adipocytes) is on record as 4-8 fold. In data set [1] (human subcutaneous adipocyte cultures), the “induction of brown adipocyte marker UCP1” value is “significantly induces”. The “induction of brown adipocyte marker GLUT4” value in [2] is reported as “significantly induces”. For the same compound, the “induction of brown adipocyte marker CPT-1” value in [3] is recorded as “significantly induces”. For the same compound, in data set [4], the “increase in transcriptional activator Pgc-1α” value is “No increases were observed”. Also, in [5], the “increase in TRPM8 receptor expression” value came out at 4 fold. Also, in [6], the “toxicity to cells (maximum concentration)” value was 12.5 µM. In data set [7] (human plasma/serum after intake of citrus beverages, read-out: Cmax), the Cmax is 10 µM. The solubility entry was “sparingly soluble” in data set [8] (aqueous solutions); “soluble” in [8] (ethanol, ether, oils (e.g., olive oil or citrus oil) and supercritical carbon dioxide).
As for `CC12CCC(CC1)C(C)(C)O2` [Eucalyptol], the “UCP1 mRNA expression versus naringenin alone” value in [1] (eucalyptol at 100 μM and 200 μM in combination with Naringenin 5 μM, 7 d) is listed as “did not increase UCP1 mRNA expression above the level observed with naringenin alone”.
Turning to `COc1ccc([C@@H]2CC(=O)c3c(O)cc(O)cc3O2)cc1O` [Hesperetin], in data set [1], the “UCP1 expression in comparison with flavonoid alone” value (“UCP1 expression in comparison” below) is on record as “No statistical difference”.
Broadly, the EC50 is the midpoint of the concentration-response curve. As to `O=C1NC(c2cccc([N+](=O)[O-])c2)=CCN1c1ccccc1O` [Icilin], the “synergy for UCP1 mRNA induction” value in data set [1] (0.5 μM icilin combined with Naringenin 5 μM, 7 d) is “did not display synergy”. The EC50 in data set [9] (TRPM8 activator) was around 500 nM. Also, the “potency relative to menthol” value in data set [9] is “at least 100 fold”.
Consider `CC1CCC(C(C)C)C(O)C1` (stereo not drawn) [Menthol], for which the “induction of UCP1 or other beige markers” value in [1] (Menthol alone, human adipocyte cultures) is reported as “No induction”. The “increase in UCP1 expression” value in data set [10] (Menthol 100 μM overnight) is on record as 1.5 fold; in data set [10] (Menthol 100 μM, cells exposed to 26° C.) it was 40 fold. Also, the Ucp1 expression entry in [11] is on record as “concentration-dependent increase”. The Cmax in data set [7] (menthol, read-out: Cmax) was 20 µM; in [7] (menthol, read-out: high end of serum Cmax) it was 30 µM.
Turning to `COc1cc(CN(CCN)C(=O)OC(C)c2ccccc2)ccc1OCc1ccccc1` (stereo not drawn) [PBMC], in [1] (inhibitor during 5 μM Naringenin treatment for 3 days), the “Naringenin-stimulated UCP1 expression in presence of inhibitor” value is “prevented Naringenin-stimulated UCP1 expression”.
With `O=c1cc(-c2ccc(O)cc2)oc2cc(O)cc(O)c12` [apigenin], in [1], the “UCP1 expression in comparison” value is given as “No statistical difference”.
As to `O=c1c(O)c(-c2ccc(O)c(O)c2)oc2cc(O)cc(O)c12` [quercetin], the “UCP1 expression in comparison” value in data set [1] is reported as “No statistical difference”.
